The target in the test is T1, HDAC6 (Homo sapiens, UniProt Q9UBN7).
T1 construct: Full length human recombinant HDAC6 protein was expressed in baculoviral system; made in house; host or cells: baculoviral system
T1 sequence (Q9UBN7 1-1215): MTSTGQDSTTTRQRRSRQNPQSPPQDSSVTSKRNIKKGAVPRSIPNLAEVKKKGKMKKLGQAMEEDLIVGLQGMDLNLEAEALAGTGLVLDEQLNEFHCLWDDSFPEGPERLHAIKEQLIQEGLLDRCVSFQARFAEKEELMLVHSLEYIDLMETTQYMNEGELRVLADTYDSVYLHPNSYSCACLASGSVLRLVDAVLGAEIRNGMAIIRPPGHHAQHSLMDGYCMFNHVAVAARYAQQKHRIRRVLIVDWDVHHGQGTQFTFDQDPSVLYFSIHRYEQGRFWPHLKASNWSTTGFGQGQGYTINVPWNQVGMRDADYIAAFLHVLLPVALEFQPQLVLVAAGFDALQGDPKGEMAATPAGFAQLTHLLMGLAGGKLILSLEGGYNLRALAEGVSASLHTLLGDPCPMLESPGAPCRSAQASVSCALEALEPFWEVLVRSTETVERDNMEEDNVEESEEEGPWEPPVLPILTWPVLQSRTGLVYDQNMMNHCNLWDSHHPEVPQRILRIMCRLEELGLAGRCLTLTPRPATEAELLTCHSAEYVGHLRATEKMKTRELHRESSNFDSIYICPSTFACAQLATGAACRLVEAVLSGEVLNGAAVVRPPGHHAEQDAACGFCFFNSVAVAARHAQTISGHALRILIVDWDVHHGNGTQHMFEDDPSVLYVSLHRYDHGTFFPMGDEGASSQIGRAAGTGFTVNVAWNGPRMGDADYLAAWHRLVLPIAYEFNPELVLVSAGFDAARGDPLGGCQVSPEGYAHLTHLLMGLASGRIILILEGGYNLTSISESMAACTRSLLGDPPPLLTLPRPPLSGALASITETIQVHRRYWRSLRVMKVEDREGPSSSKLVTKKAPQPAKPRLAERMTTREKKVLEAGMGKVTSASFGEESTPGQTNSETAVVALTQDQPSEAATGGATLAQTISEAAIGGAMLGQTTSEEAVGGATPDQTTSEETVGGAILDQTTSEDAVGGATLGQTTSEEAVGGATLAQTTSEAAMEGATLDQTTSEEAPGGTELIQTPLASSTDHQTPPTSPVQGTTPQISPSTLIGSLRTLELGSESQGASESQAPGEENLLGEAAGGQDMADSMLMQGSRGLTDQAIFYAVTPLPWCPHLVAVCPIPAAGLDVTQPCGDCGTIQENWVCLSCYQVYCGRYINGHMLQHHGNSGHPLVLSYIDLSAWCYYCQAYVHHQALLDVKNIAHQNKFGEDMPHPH
The test can be described thus: In vitro Histone Deacetylase Assay (enzymatic HDAC6 electrophoretic mobility shift assay). The class given is biochemical. The conditions noted are these: full length human recombinant HDAC6, 1 nM enzyme, 2 μM peptide substrate RHKK(Ac)-NH2, 25° C.; read-out: HDAC6 activity range. The method in brief:
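Deacetylation was read by microfluidic mobility shift as product/(substrate+product) peak ratio and normalised to 0% and 100% inhibition controls. Reactions used 1 nM baculovirus-expressed full-length human HDAC6 and 2 μM labelled RHKK(Ac)-NH2 in pH 7.5 HEPES buffer with 1% DMSO at 25 °C. IC50 was from 4-parameter fits of 12 concentrations.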
As for `COCCN1CC[C@]2(CCc3cc(C(=O)NO)ccc3C2)C1=O` [Compound I-36, (R )-N-hydroxy-1′-(2-methoxyethyl)-2′-oxo-3,4-dihydro-1H-spiro[naphthalene-2,3′-pyrrolidine]-6-carboxamide], the IC50 is no more than 100 nM.
Next, `CN(C)CCCN1CCC2(CCc3cc(C(=O)NO)ccc3C2)C1=O` (centres unmarked) [Compound I-9, 1′-(3-(dimethylamino)propyl)-N-hydroxy-2′-oxo-3,4-dihydro-1H-spiro[naphthalene-2,3′-pyrrolidine]-6-carboxamide]: 100 to 500 nM; `O=C(NO)c1ccc2c(c1)CC[C@@]1(CCN(Cc3ccccc3)C1=O)C2` [Compound I-76, (S)-1′-benzyl-N-hydroxy-2′-oxo-3,4-dihydro-1H-spiro[naphthalene-2,3′-pyrrolidine]-6-carboxamide]: no more than 100 nM; `COc1cncc(N2CC[C@@]3(CCc4cc(C(=O)NO)ccc4C3)C2=O)c1` [Compound I-144, (2S)-N-hydroxy-1′-(5-methoxypyridin-3-yl)-2′-oxo-3,4-dihydro-1H-spiro[naphthalene-2,3′-pyrrolidine]-6-carboxamide]: no more than 100 nM.
As for `O=C(NO)c1ccc2c(c1)CC[C@@]1(CCCN(C3CC3)C1=O)C2` (single isomer, unassigned) [Compound I-193], the figure is no more than 100 nM.
Turning to `O=C(NO)c1ccc2c(c1)CC[C@@]1(CCN(C3CCC3)C1=O)C2` (single isomer, unassigned) [Compound I-172], the IC50 was no more than 100 nM.
Next, `CN(C)c1ccc(N2CC[C@@]3(CCc4cc(C(=O)NO)ccc4C3)C2=O)cn1` [Compound I-152, (2S)-1′-[6-(dimethylamino)pyridin-3-yl]-N-hydroxy-2′-oxo-3,4-dihydro-1H-spiro[naphthalene-2,3′-pyrrolidine]-6-carboxamide]: 100 to 500 nM.
Next, `CC(C)c1ccc(N2CC[C@@]3(CCc4cc(C(=O)NO)ccc4C3)C2=O)cn1` [Compound I-101, (S)-N-hydroxy-1′-(6-isopropylpyridin-3-yl)-2′-oxo-3,4-dihydro-1H-spiro[naphthalene-2,3′-pyrrolidine]-6-carboxamide]: no more than 100 nM; `CCN1CC2(CCc3cc(C(=O)NO)ccc3C2)CC1=O` (single isomer, unassigned) [Compound I-206]: no more than 100 nM; `O=C(NO)c1ccc2c(c1)CC[C@]1(CCCN(C3CCC3)C1=O)C2` (single isomer, unassigned) [Compound I-198]: no more than 100 nM.
In the case of `O=C(NO)c1ccc2c(c1)CC[C@]1(CC(=O)N(c3ccncc3)C1)C2` [Compound I-228, (R)-N-hydroxy-5′-oxo-1′-(pyridin-4-yl)-3,4-dihydro-1H-spiro[naphthalene-2,3′-pyrrolidine]-6-carboxamide], the IC50 was no more than 100 nM.
Next, `CCCN1CC[C@@]2(CCc3cc(C(=O)NO)ccc3C2)C1=O` [Compound I-60, (S)-N-hydroxy-2′-oxo-1′-propyl-3,4-dihydro-1H-spiro[naphthalene-2,3′-pyrrolidine]-6-carboxamide]: 100 to 500 nM.
With `O=C(NO)c1ccc2c(c1)CC[C@@]1(CCN(Cc3cccc(Cl)c3)C1=O)C2` [Compound I-81, (S)-1′-[(3-chlorophenyl)methyl]-N-hydroxy-2′-oxo-3,4-dihydro-1H-spiro[naphthalene-2,3′-pyrrolidine]-6-carboxamide], the IC50 was no more than 100 nM.
Next, `COc1cc(N2CC[C@]3(CCc4cc(C(=O)NO)ccc4C3)C2=O)ccc1F` [Compound I-128, (2R)--(4-fluoro-3-methoxyphenyl)-N-hydroxy-2′-oxo-3,4-dihydro-1H-spiro[naphthalene-2,3′-pyrrolidine]-6-carboxamide]: no more than 100 nM; `O=C(NO)c1ccc2c(c1)CCC1(CCCN(CC3COC3)C1=O)C2` (single isomer, unassigned) [Compound I-195]: no more than 100 nM; `COc1ccc(N2CC[C@@]3(CCc4cc(C(=O)NO)ccc4C3)C2=O)c(F)c1` [Compound I-127, (2S)-1′-(2-fluoro-4-methoxyphenyl)-N-hydroxy-2′-oxo-3,4-dihydro-1H-spiro[naphthalene-2,3′-pyrrolidine]-6-carboxamide]: no more than 100 nM.
Next, `CC(C)N1CCC2(CCc3cc(C(=O)NO)ccc3O2)C1=O` (centres unmarked) [Compound I-235, N-hydroxy-1′-isopropyl-2′-oxospiro[chromane-2,3′-pyrrolidine]-6-carboxamide]: greater than 500 nM; `O=C(NO)c1ccc2c(c1)CC[C@@]1(CCN(c3cccc(F)c3)C1=O)C2` [Compound I-117, (S)-1′-(3-fluorophenyl)-N-hydroxy-2′-oxo-3,4-dihydro-1H-spiro[naphthalene-2,3′-pyrrolidine]-6-carboxamide]: no more than 100 nM.
As for `CN1CCC[C@@]2(CCc3cc(C(=O)NO)ccc3C2)C1=O` (single isomer, unassigned) [Compound I-179], the figure is no more than 100 nM; as for `O=C(NO)c1ccc2c(c1)CC[C@@]1(CCN(c3cc(F)ccc3F)C1=O)C2` [Compound I-169, (S)-1′-(2,5-difluorophenyl)-N-hydroxy-2′-oxo-3,4-dihydro-1H-spiro[naphthalene-2,3′-pyrrolidine]-6-carboxamide], no more than 100 nM; as for `CCCN1CC[C@]2(CCc3cc(C(=O)NO)ccc3C2)C1=O` [Compound I-32, (R)-N-hydroxy-2′-oxo-1′-propyl-3,4-dihydro-1H-spiro[naphthalene-2,3′-pyrrolidine]-6-carboxamide], no more than 100 nM.
Consider `O=C(NO)c1ccc2c(c1)CC[C@@]1(CCN(Cc3ccc(Cl)cc3)C1=O)C2` [Compound I-82, (S)-1′-(4-chlorobenzyl)-N-hydroxy-2′-oxo-3,4-dihydro-1H-spiro[naphthalene-2,3′-pyrrolidine]-6-carboxamide], for which the IC50 is no more than 100 nM.
As for `COc1cccc(N2CC[C@]3(CCc4cc(C(=O)NO)ccc4C3)C2=O)c1` [Compound I-108, (R)-N-hydroxy-1′-(3-methoxyphenyl)-2′-oxo-3,4-dihydro-1H-spiro[naphthalene-2,3-pyrrolidine]-6-carboxamide], the figure is no more than 100 nM; as for `O=C(NO)c1ccc2c(c1)CC[C@]1(CCN(c3cncc(F)c3)C1=O)C2` [Compound I-110, (R)-1′-(5-fluoropyridin-3-yl)-N-hydroxy-2′-oxo-3,4-dihydro-1H-spiro[naphthalene-2,3′-pyrrolidine]-6-carboxamide], no more than 100 nM; as for `O=C(NO)c1ccc2c(c1)CC[C@@]1(CCN(Cc3ccncc3)C1=O)C2` [Compound I-15, (S)-N-hydroxy-2′-oxo-1′-(pyridin-4-ylmethyl)-3,4-dihydro-1H-spiro[naphthalene-2,3′-pyrrolidine]-6-carboxamide], no more than 100 nM.
Next, `Cc1ccc(N2CC[C@@]3(CCc4cc(C(=O)NO)ccc4C3)C2=O)c(C)c1` [Compound I-100, (S)-1′-(2,4-dimethylphenyl)-N-hydroxy-2′-oxo-3,4-dihydro-1H-spiro[naphthalene-2,3′-pyrrolidine]-6-carboxamide]: no more than 100 nM; `Cc1ccc(N2CC[C@@]3(CCc4cc(C(=O)NO)ccc4C3)C2=O)cn1` [Compound I-134, (S)-N-hydroxy-1′-(6-methylpyridin-3-yl)-2′-oxo-3,4-dihydro-1H-spiro[naphthalene-2,3′-pyrrolidine]-6-carboxamide]: no more than 100 nM; `O=C(NO)c1ccc2c(c1)CCC1(CC(=O)N(CC(F)(F)F)C1)C2` (single isomer, unassigned) [Compound I-220]: no more than 100 nM.
Next, `COCCn1c(N2CC[C@@]3(CCc4cc(C(=O)NO)ccc4C3)C2=O)nc2ccccc21` [Compound I-13, (S)-N-hydroxy-1′-(1-(2-methoxyethyl)-1H-benzo[d]imidazol-2-yl)-2′-oxo-3,4-dihydro-1H-spiro[naphthalene-2,3′-pyrrolidine]-6-carboxamide]: no more than 100 nM.

These data come from patent US9630922B2, “3-spiro-7-hydroxamic acid tetralins as HDAC inhibitors” (Forma Therapeutics, Inc., priority 2015, dated 2017).
